# Measured values reported in US20220031684A1, “PROPHYLACTIC EFFICACY OF SEROTONIN 4 RECEPTOR AGONISTS AGAINST STRESS” (THE TRUSTEES OF COLUMBIA UNIVERSITY IN THE CITY OF NEW YORK, priority 2019, published 2022).
# Key:
# 129S6/SvEv mice [1] = experiment: 3-shock contextual fear conditioning (CFC); format: in vivo; conditions: for freezing at re-exposure to the training context (learned fear) vs saline: re-exposure 5 days later
# Experimental: (§1) This chronic CORT elevation dysregulates the hypothalamic-pituitary-adrenal axis (HPA) in a manner similar to that observed in clinical depression. The dose and duration of CORT treatment was selected based on previous studies. CORT (35 μg/ml, equivalent to about 5 mg/kg/day) dissolved in 0.45% hydroxypropyl-o-cyclodextrin (0-CD) or vehicle (VEH) (0.45% j-CD) was available ad libitum in the drinking water in opaque bottles to protect it from light. VEH- and CORT-treated water was changed every 3 days to prevent possible degradation. Contextual Fear Conditioning (CFC): A 3-shock CFC procedure was administered as previously published. Briefly, mice were placed into context A and administered 3 2-s shocks (0.75 mA) at 180 s, 240 s or 300 s following placement into context A. Mice were removed from the context 15 s following the termination of shock (at 317 s). For context retrieval, mice were placed back into context A for 300 s. Electrophysiology: Electrophysiology was conducted as previously described. Statistical Analysis: Results from data analyses are expressed as means±SEM. Alpha was set to 0.05 for all analyses. Data were analyzed using GraphPad Prism v7.0 or v8.0. For all experiments, unless otherwise noted, one- or two-way ANOVAs with repeated-measures were applied to the data as appropriate. Significant main effects and/or interactions were followed by Fisher's PLSD post hoc analysis or unpaired t-tests. Drugs: All drugs were prepared in physiological saline and all injections were administered intraperitoneally (i.p.) in volumes of 0.1 cc per […] body weight unless otherwise noted. Fluoxetine hydrochloride (Flx): Flx (BioTrend Chemicals AG, BG197, Zurich, Germany) was administered in the drinking water (18 mg/kg/day) for 3 weeks before the start of CORT. […] (R,S)-ketamine (K): (R,S)-ketamine (Ketaset III, Ketamine HCl injection, Fort Dodge Animal Health, Fort Dodge, Iowa) was administered in a single dose at 30 mg/kg of body weight 1 week before the start of CFC. […] PF-04995274: PF-04995274 (Sigma, Catalog No. 1331782-27-4, St. Louis, Mo.) was administered a single dose at 3 or 10 mg/kg of body weight 1 week before the start of CFC. PF-04995274 was dissolved in saline using an ultrasonic homogenizer (BioLogics, Model 3000, Manassas, Va.). Osmotic minipump implantation: ALZET osmotic minipumps (Model 2004, […], 28 days) were implanted subcutaneously under isoflurane anesthesia as previously described [S2]. Osmotic minipumps were rotated under the skin two to three times per week. Behavioral Assays: All experiments were approved by the Institutional Animal Care and Use Committee (IACUC) at the New York Psychiatric Institute (NYSPI). Elevated Plus Maze (EPM): Testing was performed as previously described [S3]. Briefly, the maze is a plus-cross-shaped apparatus consisting of four arms, two open and two enclosed by walls, linked by a central platform at a height of 50 cm from the floor. Mice were individually placed in the center of the maze facing an open arm and were allowed to explore the maze for 5 min. The time spent in and the number of entries into the open arms was used as an anxiety index. Videos were scored using ANY-maze behavior tracking software (Stoelting, Wood Dale, Ill.). Novelty-Suppressed Feeding: The NSF is a conflict test that elicits competing motivations: the drive to eat and the fear of venturing into the center of a brightly lit arena. The latency to feed is used as an index of anxiety-like behavior, because classical anxiolytic drugs decrease this measure. The NSF test was carried out during an 8 min period as previously described [S3]. Briefly, the testing apparatus consisted of a plastic box (50×50×20 cm), the floor of which was covered with approximately 2 cm of bedding. For 129S6/SvEv experiments, mice were food restricted for 12 h. For the C57BL/6N experiments, mice were food restricted for 24 h. […]
# [2] = Chronic corticosterone (CORT) model: body weight; format: in vivo, mice; conditions: male C57BL/6NTac; Flx 18 mg/kg/day in drinking water or RS-67,333 1.5 mg/kg/day in osmotic minipumps for 3 weeks prior to CORT
# Experimental: This chronic CORT elevation dysregulates the hypothalamic-pituitary-adrenal axis (HPA) in a manner similar to that observed in clinical depression. The dose and duration of CORT treatment was selected based on previous studies. CORT (35 μg/ml, equivalent to about 5 mg/kg/day) dissolved in 0.45% hydroxypropyl-o-cyclodextrin (0-CD) or vehicle (VEH) (0.45% j-CD) was available ad libitum in the drinking water in opaque bottles to protect it from light. VEH- and CORT-treated water was changed every 3 days to prevent possible degradation. Contextual Fear Conditioning (CFC): A 3-shock CFC procedure was administered as previously published. Briefly, mice were placed into context A and administered 3 2-s shocks (0.75 mA) at 180 s, 240 s or 300 s following placement into context A. Mice were removed from the context 15 s following the termination of shock (at 317 s). For context retrieval, mice were placed back into context A for 300 s. Electrophysiology: Electrophysiology was conducted as previously described. Statistical Analysis: Results from data analyses are expressed as means±SEM. Alpha was set to 0.05 for all analyses. Data were analyzed using GraphPad Prism v7.0 or v8.0. For all experiments, unless otherwise noted, one- or two-way ANOVAs with repeated-measures were applied to the data as appropriate. […] Videos were scored using ANY-maze behavior tracking software (Stoelting, Wood Dale, Ill.). […]
# 129S6/SvEv mice [3] = experiment: Elevated plus maze (EPM) after CFC; format: in vivo
# Experimental: as §1
# [4] = FIG. 3 Acute RS67333 cohort, FIG. 3B, Fisher's PLSD
# [5] = female 129S6/SvEv, 1.5 or 10 mg/kg
smiles,measurement,setting,value
"CCCCN1CCC(CCC(=O)c2cc(Cl)c(N)cc2OC)CC1.Cl [RS-67,333, 1-(4-amino-5-chloro-2-methoxyphenyl)-3-[1(n-butyl)-4-piperidinyl]-1-propanone HCl]","p, CFC Trainging Freezing (%), Saline vs. RS67333 (1.5 mg/kg)",129S6/SvEv mice [1]; [4],0.0941
same,"p, CFC Trainging Freezing (%), Saline vs. RS67333 (10 mg/kg)",129S6/SvEv mice [1]; [4],0.0076
same,"p, CFC Training Freezing (min 1), RS67333 (1.5 mg/kg) vs. RS67333 (10 mg/kg)","129S6/SvEv mice [1]; FIG. 3 cohort, Fisher's PLSD",0.9715
same,"p, CFC Training Freezing (min 1), Saline vs. RS67333 (1.5 mg/kg)","129S6/SvEv mice [1]; FIG. 3 cohort, Fisher's PLSD",0.8847
same,"p, CFC Training Freezing (min 1), Saline vs. RS67333 (10 mg/kg)","129S6/SvEv mice [1]; FIG. 3 cohort, Fisher's PLSD",0.9054
same,"p, CFC Training Freezing (min 3), RS67333 (1.5 mg/kg) vs. RS67333 (10 mg/kg)","129S6/SvEv mice [1]; FIG. 3 cohort, Fisher's PLSD",0.8746
same,"p, CFC Training Freezing (min 3), Saline vs. RS67333 (1.5 mg/kg)","129S6/SvEv mice [1]; FIG. 3 cohort, Fisher's PLSD",0.8999
same,"p, CFC Training Freezing (min 3), Saline vs. RS67333 (10 mg/kg)","129S6/SvEv mice [1]; FIG. 3 cohort, Fisher's PLSD",0.9721
same,"p, CFC Training Freezing (min 4), RS67333 (1.5 mg/kg) vs. RS67333 (10 mg/kg)","129S6/SvEv mice [1]; FIG. 3 cohort, Fisher's PLSD",0.7882
same,"p, CFC Training Freezing (min 4), Saline vs. RS67333 (1.5 mg/kg)","129S6/SvEv mice [1]; FIG. 3 cohort, Fisher's PLSD",0.0168
same,"p, CFC Training Freezing (min 4), Saline vs. RS67333 (10 mg/kg)","129S6/SvEv mice [1]; FIG. 3 cohort, Fisher's PLSD",0.0040
same,"p, CFC Training Freezing (min 5), RS67333 (1.5 mg/kg) vs. RS67333 (10 mg/kg)","129S6/SvEv mice [1]; FIG. 3 cohort, Fisher's PLSD",0.0492
same,"p, CFC Training Freezing (min 5), Saline vs. RS67333 (1.5 mg/kg)","129S6/SvEv mice [1]; FIG. 3 cohort, Fisher's PLSD",0.0117
same,"p, CFC Training Freezing (min 5), Saline vs. RS67333 (10 mg/kg)","129S6/SvEv mice [1]; FIG. 3 cohort, Fisher's PLSD",<0.0001
same,"p, CFC Training freezing (min 2), RS67333 (1.5 mg/kg) vs. RS67333 (10 mg/kg)","129S6/SvEv mice [1]; FIG. 3 cohort, Fisher's PLSD",0.9854
same,"p, CFC Training freezing (min 2), Saline vs. RS67333 (1.5 mg/kg)","129S6/SvEv mice [1]; FIG. 3 cohort, Fisher's PLSD",0.8966
same,"p, CFC Training freezing (min 2), Saline vs. RS67333 (10 mg/kg)","129S6/SvEv mice [1]; FIG. 3 cohort, Fisher's PLSD",0.8719
same,freezing at re-exposure to the training context,"129S6/SvEv mice [1]; female 129S6/SvEv, 1.5 or 10 mg/kg vs saline, 5 days after CFC",comparable levels of freezing
same,freezing during CFC training,"129S6/SvEv mice [1]; female 129S6/SvEv, single injection 1 week before CFC, 1.5 or 10 mg/kg vs saline",comparable levels of freezing
same,freezing during CFC training vs saline,"129S6/SvEv mice [1]; male 129S6/SvEv, single i.p. injection 1 week before CFC, 30 mg/kg",significantly less freezing
same,freezing at re-exposure to the training context (learned fear) vs saline,"129S6/SvEv mice [1]; male 129S6/SvEv, single i.p. injection 1 week before CFC, 1.5 mg/kg",significantly less freezing
same,freezing at re-exposure to the training context (learned fear) vs saline,"129S6/SvEv mice [1]; male 129S6/SvEv, single i.p. injection 1 week before CFC, 10 mg/kg",significantly less freezing
same,CORT-induced increase in body weight,[2],attenuated
same,"p, EPM Time in Open, Saline vs. RS67333 (10 mg/kg)","129S6/SvEv mice [3]; FIG. 2J, t-test",0.2069
same,"p, EPM Entries into Open, Saline vs. RS67333 (10 mg/kg)","129S6/SvEv mice [3]; FIG. 2K, t-test",0.3584
same,entries into the open arms of the EPM,129S6/SvEv mice [3]; [5],comparable
same,time spent in the open arms of the EPM,129S6/SvEv mice [3]; [5],comparable
same,entries into the open arms of the EPM vs saline,"129S6/SvEv mice [3]; male 129S6/SvEv, 10 mg/kg",neither in the open arms nor entries into the open arms of the maze was significantly different
same,time in the open arms of the EPM vs saline,"129S6/SvEv mice [3]; male 129S6/SvEv, 10 mg/kg",neither in the open arms nor entries into the open arms of the maze was significantly different
